Results from patent US11345694B2, “Antibacterial compounds” (DISCUVA LTD., priority 2017, dated 2022).
In brackets after ≈: the same amount, converted by molar mass.

Experiments:
[1] = tested on: Serratia marcescens SL1344 (Sm); assay: MIC broth microdilution; format: cell-based
How it was run: (§1)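 Following CLSI standards, susceptibility is measured in cation-adjusted Müller-Hinton broth at 37° C without added CO2 for 20-24 hours. Test concentrations run 0.39-200 μM final in doubling steps, DMSO capped at 2%. MIC: lowest concentration without bacterial growth.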

[2] = tested on: Staphylococcus aureus ATCC 35556 (SA); assay: MIC broth microdilution; format: cell-based; settings: for MIC: ATCC35556
How it was run: as §1

[3] = tested on: Escherichia coli K12 (EC); assay: MIC broth microdilution; format: cell-based
How it was run: as §1

[4] = tested on: Pseudomonas aeruginosa ATCC 33359 (PA); assay: MIC broth microdilution; format: cell-based; settings: for MIC: ATCC33359
How it was run: as §1

[5] = tested on: Enterobacter cloacae DSM 30054 (Ed); assay: MIC broth microdilution; format: cell-based; settings: for MIC: DSM30054
How it was run: (§2)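 Planktonic MIC determination: compound tested two-fold from 200 down to 0.39 μM final with DMSO capped at 2% final, cation-adjusted Müller-Hinton broth, 37° C for 20-24 hours. Endpoint is the lowest concentration inhibiting growth.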

[6] = tested on: Klebsiella pneumoniae ATCC 10031 (KP2); assay: MIC broth microdilution; format: cell-based; settings: for MIC: ATCC10031
How it was run: as §2

[7] = tested on: Acinetobacter baumannii ATCC 17978 (AB); assay: MIC broth microdilution; format: cell-based; settings: for MIC: ATCC17978
How it was run: as §1

[8] = tested on: Salmonella typhimurium XNAA5 (St); assay: MIC broth microdilution; format: cell-based; settings: for MIC: Salmonella enterica
How it was run: as §1

[9] = tested on: human hepatocarcinoma cell line ATCC HB-8065 (HepG2); assay: Human cell viability (CellTiter-Glo); format: cell-based; settings: Homo sapiens; HepG2 cells, 24 h incubation, CellTiter-Glo luminescence, 0.2-100 μM; read-out: IC50 values against the HepG2 cell line
How it was run: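 HepG2 cells were seeded at 20,000 cells/well in MEM with 10% FBS and, after 24 h, exposed for 24 h at 37° C. to two-fold dilutions (final 0.2-100 μM) in MEM with 1% FBS and 1% DMSO. Viability was read by CellTiter-Glo luminescence, with IC50 from a 4-parameter logistic fit.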

[10] = tested on: E. coli NCTC 13441 (UPEC); assay: MIC broth microdilution; format: cell-based, Escherichia coli; settings: for MIC: Escherichia coli, NCTC13441
How it was run: as §1

[11] = tested on: K. pneumoniae H154640784 (KP7); assay: MIC broth microdilution; format: cell-based, Klebsiella pneumoniae; settings: for MIC: Klebsiella pneumoniae
How it was run: as §2

[12] = tested on: K. pneumoniae H151440671 (KP10); assay: MIC broth microdilution; format: cell-based, Klebsiella pneumoniae; settings: for MIC: Klebsiella pneumoniae
How it was run: as §2

[13] = tested on: K. pneumoniae H154680676 (KP5); assay: MIC broth microdilution; format: cell-based, Klebsiella pneumoniae; settings: for MIC: Klebsiella pneumoniae
How it was run: as §2

[14] = tested on: K. pneumoniae H154300688 (KP9); assay: MIC broth microdilution; format: cell-based, Klebsiella pneumoniae; settings: for MIC: Klebsiella pneumoniae
How it was run: as §2

[15] = tested on: K. pneumoniae H154020667 (KP6); assay: MIC broth microdilution; format: cell-based, Klebsiella pneumoniae; settings: for MIC: Klebsiella pneumoniae
How it was run: as §2

[16] = tested on: K. pneumoniae H154600588 (KP8); assay: MIC broth microdilution; format: cell-based, Klebsiella pneumoniae; settings: for MIC: Klebsiella pneumoniae
How it was run: as §2

[17] = tested on: K. pneumoniae NCTC 13438 (KP1); assay: MIC broth microdilution; format: cell-based, Klebsiella pneumoniae; settings: for MIC: Klebsiella pneumoniae, NCTC13438
How it was run: as §2

[18] = tested on: K. pneumoniae ATCC 700603 (KP3); assay: MIC broth microdilution; format: cell-based, Klebsiella pneumoniae; settings: for MIC: Klebsiella pneumoniae, ATCC700603
How it was run: as §2

SMILES	MIC [1]	MIC [2]	MIC [3]	MIC [4]	MIC [5]	MIC [6]	MIC [7]	MIC [8]	IC50 [9]	MIC [10]	MIC [11]	MIC [12]	MIC [13]	MIC [14]	MIC [15]	MIC [16]	MIC [17]	MIC [18]	MIC Sm [1]	MIC SA [2]	further results
Cc1cc(-c2nc(N)[nH]c2-c2ccc(OCc3ccc(F)cc3)c(F)c2)ccn1 [Example 16, 5-(3-Fluoro-4-((4-fluorobenzyl)oxy)phenyl)-4-(2-methylpyridin-4-yl)-1H-imidazol-2-amine]	≤ 1 µM	> 100 µM	≤ 1 µM	> 100 µM	≤ 1 µM	≤ 1 µM	> 100 µM	≤ 1 µM	25 to 100 µM	≤ 1 µM	≤ 1 µM	≤ 1 µM	≤ 1 µM	≤ 1 µM	≤ 1 µM	≤ 1 µM	≤ 1 µM	≤ 1 µM	–	–	–
Nc1cc(-c2[nH]c(N)nc2-c2ccc(OCc3ccc(F)cc3)cc2)ccn1 [Example 7, 4-(2-Amino-4-(4-((4-fluorobenzyl)oxy)phenyl)-1H-imidazol-5-yl)pyridin-2-amine]	≤ 1 µM	10 to 100 µM (≈ 3.75 to 37.5 µg/mL)	≤ 1 µM	> 100 µM	≤ 1 µM	≤ 1 µM	> 100 µM	≤ 1 µM	25 to 100 µM	≤ 1 µM	1 to 10 µM (≈ 0.375 to 3.75 µg/mL)	≤ 1 µM	≤ 1 µM	≤ 1 µM	≤ 1 µM	1 to 10 µM (≈ 0.375 to 3.75 µg/mL)	1 to 10 µM (≈ 0.375 to 3.75 µg/mL)	1 to 10 µM (≈ 0.375 to 3.75 µg/mL)	–	–	–
NC[C@H]1O[C@H](O[C@H]2[C@H](O)[C@@H](O[C@H]3O[C@H](CO)[C@@H](O)[C@H](N)[C@H]3O)[C@H](N)C[C@@H]2N)[C@H](N)C[C@@H]1O [TOB]	–	–	–	–	–	–	–	–	–	–	–	–	–	–	–	–	–	–	A (an MIC (μM) of less or equal to 1 is assigned the letter A)	B (a MIC of from 1 to 10 is assigned the letter B)	MIC EC [3]: B (a MIC of from 1 to 10 is assigned the letter B); MIC PA [4]: B (a MIC of from 1 to 10 is assigned the letter B); MIC Ecl [5]: C (a MIC of from 10 to 100 is assigned the letter C); MIC AB [7]: B (a MIC of from 1 to 10 is assigned the letter B); MIC St [8]: B (a MIC of from 1 to 10 is assigned the letter B); MIC UPEC [10]: D (a MIC of over 100 is assigned the letter D)
Cc1cc(-c2nc(N)[nH]c2-c2ccc(Cl)cc2)ccn1 [Example 4, 5-(4-Chlorophenyl)-4-(2-methylpyridin-4-yl)-1H-imidazol-2-amine]	10 to 100 µM (≈ 2.85 to 28.5 µg/mL)	> 100 µM	≤ 1 µM	> 100 µM	1 to 10 µM (≈ 0.285 to 2.85 µg/mL)	≤ 1 µM	> 100 µM	1 to 10 µM (≈ 0.285 to 2.85 µg/mL)	> 100 µM	1 to 10 µM (≈ 0.285 to 2.85 µg/mL)	–	–	–	–	–	–	10 to 100 µM (≈ 2.85 to 28.5 µg/mL)	–	–	–	–
C[C@@H](O)[C@H]1C(=O)N2C(C(=O)O)=C(SCCN=CN)C[C@H]12 [IPM]	–	–	–	–	–	–	–	–	–	–	–	–	–	–	–	–	–	–	B (a MIC of from 1 to 10 is assigned the letter B)	A (an MIC (μM) of less or equal to 1 is assigned the letter A)	MIC EC [3]: A (an MIC (μM) of less or equal to 1 is assigned the letter A); MIC PA [4]: B (a MIC of from 1 to 10 is assigned the letter B); MIC Ecl [5]: B (a MIC of from 1 to 10 is assigned the letter B); MIC KP2 [6]: B (a MIC of from 1 to 10 is assigned the letter B); MIC AB [7]: A (an MIC (μM) of less or equal to 1 is assigned the letter A); MIC St [8]: B (a MIC of from 1 to 10 is assigned the letter B); MIC UPEC [10]: A (an MIC (μM) of less or equal to 1 is assigned the letter A); MIC KP7 [11]: C (a MIC of from 10 to 100 is assigned the letter C); MIC KP10 [12]: C (a MIC of from 10 to 100 is assigned the letter C); MIC KP5 [13]: B (a MIC of from 1 to 10 is assigned the letter B); MIC KP9 [14]: D (a MIC of over 100 is assigned the letter D); MIC KP6 [15]: B (a MIC of from 1 to 10 is assigned the letter B); MIC KP8 [16]: D (a MIC of over 100 is assigned the letter D); MIC KP1 [17]: C (a MIC of from 10 to 100 is assigned the letter C); MIC KP3 [18]: B (a MIC of from 1 to 10 is assigned the letter B)
Cc1cc(-c2[nH]c(N)nc2-c2ccc(OCc3ccc(F)cc3)cc2)ccn1 [Example 19, 4-(4-((4-Fluorobenzyl)oxy)phenyl)-5-(2-methylpyridin-4-yl)-1H-imidazol-2-amine]	≤ 1 µM	10 to 100 µM (≈ 3.74 to 37.4 µg/mL)	≤ 1 µM	> 100 µM	≤ 1 µM	≤ 1 µM	10 to 100 µM (≈ 3.74 to 37.4 µg/mL)	≤ 1 µM	25 to 100 µM	≤ 1 µM	1 to 10 µM (≈ 0.374 to 3.74 µg/mL)	≤ 1 µM	≤ 1 µM	≤ 1 µM	≤ 1 µM	1 to 10 µM (≈ 0.374 to 3.74 µg/mL)	≤ 1 µM	≤ 1 µM	–	–	–
COc1ccc(-c2[nH]c(N)nc2-c2ccnc(C)c2)cc1 [Example 21, 5-(4-Methoxyphenyl)-4-(2-methylpyridin-4-yl)-1H-imidazol-2-amine]	> 100 µM	> 100 µM	1 to 10 µM (≈ 0.28 to 2.8 µg/mL)	> 100 µM	> 100 µM	≤ 1 µM	> 100 µM	> 100 µM	> 100 µM	1 to 10 µM (≈ 0.28 to 2.8 µg/mL)	–	–	–	–	–	–	10 to 100 µM (≈ 2.8 to 28 µg/mL)	–	–	–	–
C[C@H]1c2cccc(O)c2C(=O)C2=C(O)[C@]3(O)C(=O)C(C(N)=O)=C(O)[C@@H](N(C)C)[C@@H]3[C@@H](O)[C@@H]21 [DOX]	–	–	–	–	–	–	–	–	–	–	–	–	–	–	–	–	–	–	B (a MIC of from 1 to 10 is assigned the letter B)	A (an MIC (μM) of less or equal to 1 is assigned the letter A)	MIC EC [3]: B (a MIC of from 1 to 10 is assigned the letter B); MIC PA [4]: C (a MIC of from 10 to 100 is assigned the letter C); MIC Ecl [5]: B (a MIC of from 1 to 10 is assigned the letter B); MIC KP2 [6]: A (an MIC (μM) of less or equal to 1 is assigned the letter A); MIC AB [7]: A (an MIC (μM) of less or equal to 1 is assigned the letter A); MIC St [8]: B (a MIC of from 1 to 10 is assigned the letter B); MIC UPEC [10]: C (a MIC of from 10 to 100 is assigned the letter C); MIC KP7 [11]: C (a MIC of from 10 to 100 is assigned the letter C); MIC KP10 [12]: B (a MIC of from 1 to 10 is assigned the letter B); MIC KP5 [13]: C (a MIC of from 10 to 100 is assigned the letter C); MIC KP9 [14]: C (a MIC of from 10 to 100 is assigned the letter C); MIC KP6 [15]: C (a MIC of from 10 to 100 is assigned the letter C); MIC KP8 [16]: C (a MIC of from 10 to 100 is assigned the letter C); MIC KP1 [17]: C (a MIC of from 10 to 100 is assigned the letter C); MIC KP3 [18]: C (a MIC of from 10 to 100 is assigned the letter C)
